Measured values: the NIST ThermoML archive (doi:10.1016/j.fluid.2004.09.013)

Conditions: for mass density: Fluid (supercritical or subcritical phases), Vibrating tube method

C/C=C/C [(E)-2-butene]
Conditions	Critical density [kg/m3]	mass density [kg/m3]
453.25 K, 34989 kPa	–	504.85
453.25 K, 39997 kPa	–	515.79
458.25 K, 5018 kPa	–	143.71
458.25 K, 15001 kPa	–	424.61
458.25 K, 20004 kPa	–	451.96
458.25 K, 24994 kPa	–	471.69
458.25 K, 30004 kPa	–	487.34
458.25 K, 34994 kPa	–	500.33
458.25 K, 40004 kPa	–	511.57
458.26 K, 9992 kPa	–	376.95
463.25 K, 5019 kPa	–	132.86
463.25 K, 9998 kPa	–	364.93
463.25 K, 14997 kPa	–	416.89
463.25 K, 20001 kPa	–	445.66
463.25 K, 24994 kPa	–	466.25
463.25 K, 29992 kPa	–	482.44
463.25 K, 34997 kPa	–	495.87
463.25 K, 39985 kPa	–	507.37
468.25 K, 5019 kPa	–	124.67
468.25 K, 14984 kPa	–	408.44
468.25 K, 19991 kPa	–	439.31
468.25 K, 24990 kPa	–	460.78
468.25 K, 29991 kPa	–	477.55
468.25 K, 34993 kPa	–	491.38
468.25 K, 39991 kPa	–	503.2
468.26 K, 9993 kPa	–	352.22
473.25 K, 5018 kPa	–	118.06
473.25 K, 9998 kPa	–	339.4
473.25 K, 15002 kPa	–	400.67
473.25 K, 19991 kPa	–	432.96
473.25 K, 24985 kPa	–	455.31
473.25 K, 29991 kPa	–	472.65
473.25 K, 35002 kPa	–	486.9
473.25 K, 39993 kPa	–	499.03
478.25 K, 5018 kPa	–	112.62
478.25 K, 9993 kPa	–	326
478.25 K, 14989 kPa	–	392.47
478.25 K, 19985 kPa	–	426.52
478.25 K, 25003 kPa	–	449.85
478.25 K, 29992 kPa	–	467.75
478.25 K, 35005 kPa	–	482.42
478.25 K, 40012 kPa	–	494.85
483.25 K, 5018 kPa	–	107.95
483.25 K, 9988 kPa	–	312.49
483.25 K, 14996 kPa	–	384.28
483.25 K, 19982 kPa	–	420.06
483.25 K, 25007 kPa	–	444.4
483.25 K, 29987 kPa	–	462.83
483.25 K, 35000 kPa	–	477.93
483.25 K, 39990 kPa	–	490.66
488.25 K, 5018 kPa	–	103.9
488.25 K, 9985 kPa	–	299.1
488.25 K, 14997 kPa	–	376.01
488.25 K, 20002 kPa	–	413.74
488.25 K, 25005 kPa	–	438.9
488.25 K, 29988 kPa	–	457.94
488.25 K, 34992 kPa	–	473.43
488.25 K, 40013 kPa	–	486.57
493.25 K, 5018 kPa	–	100.36
493.25 K, 9986 kPa	–	285.99
493.25 K, 14990 kPa	–	367.61
493.25 K, 20001 kPa	–	407.28
493.25 K, 25006 kPa	–	433.4
493.25 K, 29986 kPa	–	453.04
493.25 K, 35005 kPa	–	469.02
493.25 K, 39997 kPa	–	482.38
498.25 K, 5018 kPa	–	97.2
498.25 K, 9992 kPa	–	273.51
498.25 K, 14982 kPa	–	359.21
498.25 K, 19993 kPa	–	400.8
498.25 K, 25004 kPa	–	427.91
498.25 K, 29983 kPa	–	448.16
498.25 K, 35000 kPa	–	464.56
498.25 K, 39994 kPa	–	478.26
503.25 K, 5019 kPa	–	94.38
503.25 K, 9995 kPa	–	261.54
503.25 K, 14996 kPa	–	351.04
503.25 K, 19991 kPa	–	394.38
503.25 K, 25000 kPa	–	422.42
503.25 K, 30008 kPa	–	443.38
503.25 K, 35007 kPa	–	460.15
503.25 K, 39992 kPa	–	474.14
508.25 K, 5017 kPa	–	91.73
508.25 K, 9986 kPa	–	249.99
508.25 K, 14991 kPa	–	342.7
508.25 K, 19987 kPa	–	387.81
508.25 K, 24998 kPa	–	416.93
508.25 K, 30007 kPa	–	438.53
508.25 K, 34991 kPa	–	455.68
508.25 K, 39996 kPa	–	470.06
513.25 K, 5019 kPa	–	89.39
513.25 K, 9982 kPa	–	239.32
513.25 K, 14985 kPa	–	334.4
513.25 K, 19985 kPa	–	381.11
513.25 K, 24987 kPa	–	411.43
513.25 K, 29999 kPa	–	433.67
513.25 K, 34992 kPa	–	451.29
513.25 K, 39993 kPa	–	465.98
518.24 K, 30001 kPa	–	428.87
518.24 K, 35000 kPa	–	446.94
518.25 K, 5016 kPa	–	87.15
518.25 K, 9990 kPa	–	229.8
518.25 K, 14984 kPa	–	326.26
518.25 K, 20002 kPa	–	374.92
518.25 K, 24995 kPa	–	406.05
518.25 K, 39988 kPa	–	461.92
523.24 K, 24994 kPa	–	400.62
523.24 K, 39996 kPa	–	457.91
523.25 K, 5016 kPa	–	85.12
523.25 K, 9982 kPa	–	220.69
523.25 K, 14998 kPa	–	318.44
523.25 K, 20000 kPa	–	368.56
523.25 K, 29990 kPa	–	424.03
523.25 K, 34989 kPa	–	442.55
Liquid, visual observation in a variable volume cell:FP	236.4	–

Liquid
Conditions	Critical pressure [kPa]	Critical temperature [K]
–	4027.3	428.61
